Assay results as given in patent publication US20160074420A1, “ORAL B12 THERAPY” (Emisphere Technologies, Inc., priority 2010, published 2016).

Tests used:
[1] = Vitamin B12 absorption after dosing Sprague-Dawley rats (plasma vitamin B12 by RIA); format: in vivo; conditions: for AUC / Cmax / Tmax: male Sprague-Dawley rats, mean, N = 5
Procedure: (1) 8.8 mg of vitamin B12, 35 mg of SNAC were weighed, thoroughly mixed and made into a tablet for dosing in rats; (2) 8.8 mg of vitamin B12, 35 mg of SNAC and 5 mg of capmul PG-8 (propylene glycol monocaprylate) were weighed, thoroughly mixed and made into a tablet; (3) 8.8 mg of vitamin B12, 35 mg of SNAC and 0.9 mg of povidone were weighed, thoroughly mixed and made into a tablet. Each of the […] processes was repeated to produce more tablets.
Male Sprague-Dawley rats (325-350 g) were dosed with vitamin B12 intravenously (0.5 mg/kg) alone, or orally with the tablets made in Example 4 at a dose of 50 mg/kg, vitamin B12 alone or in combination with SNAC at 200 mg/kg. Blood samples were collected at 0, 3, 10, 20, 30, 60, 120, 240 and 360 minutes post dosing. Plasma samples were analyzed for vitamin B12 by RIA. The model independent pharmacokinetic (PK) metrics obtained following administration of the vitamin B12/SNAC combination were compared to those obtained following administration of vitamin B12 alone.

homocysteine (HC) = test: Open label randomized study: plasma HC levels; format: in vivo, human; conditions: for mean (SD) percent change in HC levels: plasma
Procedure: (§1) This was an open-label, randomized 60-day study, with a 30-day extension, conducted in B12 deficient subjects. Subjects were assigned to a treatment according to a randomization schedule prepared by a statistician at the start of the study. The randomization scheme was stratified such that a balanced number of males and females were assigned to each treatment group. Subjects were randomized to receive either a 1000 μg oral tablet, administered once daily for 90 days or 1000 μg cyanocobalamin, administered IM on Days 1, 3, 7, 10, 14, 21, 30, 60 and 90.
(§2) A single tablet was self-administered in the fasted state and at least one hour prior to the morning meal with 50 mL water. IM study drug administration was performed by study personnel, in the research clinic, in the morning, in the fasted state and at least 1 hour prior to the morning meal on study Days 1, 3, 7, 10, 14, 21, 30, 60 and 90. For subjects assigned to receive tablets, treatment compliance was based on subject diary entries. Blood samples for pharmacodynamic assessments (efficacy variables) were collected from all subjects at baseline prior to dosing (Day 1), and on Days 15, 31, 61 and 91. Sample collection was carried out approximately 24 hours after the last dose administration, prior to that day's dose administration, and in the fasting state.
(§3) Serum cobalamin (B12) levels were determined by a validated microparticle enzyme immunoassay (MEIA) detection method with a calibration range of 100-2000 pg/mL. Sample dilution procedures were validated up to 4-fold dilution. Serum MMA levels were determined by a validated LC/MS/MS method with a calibration range of 5-200 ng/mL. Plasma HC levels were determined by a validated fluorescence polarization immunoassay (FIPA) detection method with a calibration range of 2.5-50 μmol/L; and plasma holotranscobalamin (active B12) levels were determined using a validated MEIA method, with a calibration range of 8-128 pmol/L. Sample dilution procedures were validated up to 32-fold dilution.
(§4) The primary efficacy variable was serum cobalamin levels on Day 61. The primary efficacy outcome compared the proportion of subjects in each treatment group whose cobalamin levels were normalized (≧350 pg/mL) on Day 61. The secondary efficacy variables were serum cobalamin levels on Day 91, serum MMA levels on Day 61 and Day 91 and, plasma total HC levels on Day 61 and Day 91.
(§5) The secondary efficacy outcomes were: comparison of the proportion of subjects in each treatment group whose cobalamin levels were normalized (≧350 pg/mL) on Day 91; comparison of the mean percent change from baseline in serum cobalamin levels among subjects in each treatment group on Day 61 and Day 91; comparison of the mean percent change from baseline in serum MMA levels among subjects in each treatment group on Day 61 and Day 91; comparison of the mean percent change from baseline in total plasma HC among subjects in each treatment group on Day 61 and Day 91; comparison of the mean first time to normalization of serum cobalamin (≧350 pg/mL) among subjects in each treatment group on Day 61 and Day 91. Exploratory efficacy variables and outcomes were: plasma holotranscobalamin levels on Day 61 and Day 91, measured by: comparison of the proportion of subjects in each treatment group whose holotranscobalamin levels were normalized (≧40 pmol/L) on Day 61 and Day 91; the relationship between cobalamin and holotranscobalamin levels on Day 61 and Day 91.
(§6) Change from baseline (CFB) is defined as (X−B). Percent change from baseline (PCFB) is defined as PCFB=100(X−B)/B, where B is the baseline (pre-dose Day 1) measurement and X is the measurement at Day 61 or Day 91, as required.
(§7) The proportion of subjects who achieved normalization of cobalamin levels (i.e., cobalamin ≧350 pg/mL) at Day 91 was to be analyzed using the same methodology as given above for the primary analysis (i.e., Day 61). […]

[2] = Open label randomized study: serum cobalamin (B12) levels in subjects with mild vitamin B12 deficiency; format: in vivo, human; conditions: for Cobalamin Responder (%): number of subjects (%) with cobalamin >=350 pg/mL; for Cobalamin Responder (%) / Cobalamin Non-responder (%): ITT; for Cobalamin Non-responder (%): number of subjects (%); for mean (SD) percent change in cobalamin levels: serum
Procedure: In this study, the efficacy and safety of the oral vitamin B12 formulation (1 mg) of the present invention and intramuscular (IM) cyanocobalamin (1 mg) were evaluated in subjects with mild vitamin B12 deficiency.
as §1, §2, §3, §4, §5
The analysis of the primary efficacy outcome compared the proportion of subjects in each treatment group whose cobalamin levels were normalized (i.e., cobalamin ≧350 pg/mL) on Day 61 Visit. The number and frequency of normalized subjects was calculated. […]

[3] = Open label randomized study: safety assessments (adverse events); format: in vivo, human; conditions: 90-day study
Procedure: Safety assessments consisted of monitoring adverse events (AEs), hematology, chemistry and urinalysis laboratory test results, concomitant medications, vital sign assessments, ECG and physical examination findings.
A resting 12-lead ECG was recorded at screening and at the End-of-Study visit prior to discharge from the study. The ECG parameters recorded included ventricular rate (bpm), PR interval (msec), QRS duration (msec), QT interval (msec), QTc interval (msec, Bazett's correction). A physical examination was performed at screening and at the End-of-Study visit prior to discharge from the study.
The safety population included all randomized subjects who received at least one administration of study product and who had at least one subsequent safety assessment. Subjects are included in this group based on the actual treatment received. All safety analyses were performed on the safety population.

[4] = Open label randomized study: plasma holotranscobalamin (active B12) levels; format: in vivo, human; conditions: for Holotranscobalamin Responder (%): number of subjects (%) with holotranscobalamin >=40 pmol/L; for Holotranscobalamin Responder (%) / Holotranscobalamin Non-responder (%): ITT; for Holotranscobalamin Non-responder (%): number of subjects (%)
Procedure: as §1, §2, §3, §5
The proportion of subjects who achieved normalization of holotranscobalamin levels (≧40 pmol/L) at Day 61 and Day 91 were analyzed using the same methodology as given for the primary analysis. The relationship between cobalamin and holotranscobalamin levels at Day 61 and Day 91, and the PCFB to Day 61 and Day 91 were explored. The relationship was analyzed graphically.

methylmalonic acid (MMA) = test: Open label randomized study: serum MMA levels; format: in vivo, human; conditions: for mean (SD) percent change in MMA levels: serum
Procedure: as §1, §2, §3, §4, §5, §6, §7

[5] = cited from earlier work
[6] = 50 mg/kg vitamin B12 PO (tablet)
[7] = Day 1 (baseline prior to dosing)

Vitamin B12
AUC ([1]; 0.5 mg/kg IV): 65.84 µg·min/mL | Cmax ([1]; 0.5 mg/kg IV): 2150 ng/mL | Tmax ([1]; 0.5 mg/kg IV): 4.4 min | AUC [1, 6]: 28.72 µg·min/mL | Cmax [1, 6]: 140 ng/mL | Tmax [1, 6]: 52 min | Mean Bioavailability ([1]; 50 mg/kg vitamin B12 PO versus 0.5 mg/kg IV, rats): 0.42%

cyanocobalamin [IM B12]
Homocysteine, Mean (homocysteine (HC); [7]): 13 µmol/L | Homocysteine, Mean (homocysteine (HC); Day 15): 10 µmol/L | Homocysteine, Mean (homocysteine (HC); Day 61): 11 µmol/L | mean (SD) percent change in HC levels (homocysteine (HC); Day 61, change from baseline): −17.49 (24.099) percent | Homocysteine, Mean (homocysteine (HC); Day 91): 12 µmol/L | mean (SD) percent change in HC levels (homocysteine (HC); Day 91, change from baseline): −8.805 (28.5406) percent | Total B12, Mean [2, 7]: 369 pg/mL | Total B12, Mean ([2]; Day 15): 2434 pg/mL | Cobalamin Responder (%) ([2]; Day 15): 26 (100.0) % | Cobalamin Non-responder (%) ([2]; Day 15): 0 (0.0) % | Total B12, Mean ([2]; Day 61): 2258 pg/mL | mean (SD) percent change in cobalamin levels ([2]; Day 61, change from baseline): 714.6 (732.11) percent | Cobalamin Responder (%) ([2]; Day 61): 26 (100.0) % | Cobalamin Non-responder (%) ([2]; Day 61): 0 (0.0) % | Total B12, Mean ([2]; Day 91): 2057 ± 935 pg/mL | mean (SD) percent change in cobalamin levels ([2]; Day 91, change from baseline): 608.9 (446.68) percent | Total B12, Mean ([2]; Day 91, listed as IM Treatment Group): 2057 pg/mL | Cobalamin Responder (%) ([2]; Day 91): 26 (100.0) % | Cobalamin Non-responder (%) ([2]; Day 91): 0 (0.0) % | subjects reported at least one AE [3]: 57.7% | subjects reported serious adverse events (SAEs) [3]: 11.5% | Subjects who discontinued because of an AE ([3]; safety population): 0 (0)^ n (%) | Subjects with AEs ([3]; safety population): 15 (57.7) n (%) | Subjects with SAEs ([3]; safety population): 3 (11.5) n (%) | Subjects with TEAEs ([3]; safety population): 15 (57.7) n (%) | HTC, Mean [4, 7]: 34.32 pmol/L | HTC, Mean ([4]; Day 15): 899 pmol/L | Holotranscobalamin Responder (%) ([4]; Day 15): 26 (100.0) % | Holotranscobalamin Non-responder (%) ([4]; Day 15): 0 (0.0) % | HTC, Mean ([4]; Day 61): 739 pmol/L | Holotranscobalamin Responder (%) ([4]; Day 61): 26 (100.0) % | Holotranscobalamin Non-responder (%) ([4]; Day 61): 0 (0.0) % | HTC, Mean ([4]; Day 91): 877 pmol/L | Holotranscobalamin Responder (%) ([4]; Day 91): 26 (100.0) % | Holotranscobalamin Non-responder (%) ([4]; Day 91): 0 (0.0) % | MMA, Mean (methylmalonic acid (MMA); [7]): 232 nmol/L | MMA, Mean (methylmalonic acid (MMA); Day 15): 128 nmol/L | MMA, Mean (methylmalonic acid (MMA); Day 61): 148 nmol/L | mean (SD) percent change in MMA levels (methylmalonic acid (MMA); Day 61, change from baseline): −28.17 (24.754) percent | MMA, Mean (methylmalonic acid (MMA); Day 91): 149 nmol/L | mean (SD) percent change in MMA levels (methylmalonic acid (MMA); Day 91, change from baseline): −26.58 (25.643) percent

cyanocobalamin [Oral cyanocobalamin]
B12 levels increased by a mean value ([5]; 1000 μg/day oral, 1 week, in 17 of 20 elderly patients (Kaltenbach et al.)): 0.23 µg/L | patients normalized (serum B12 levels) ([5]; 2.5 year study (Andres et al.)): 95% | patients achieved normal serum B12 levels ([5]; 3 month studies (Andres et al.)): 80-90% | patients with clinical improvements ([5]; Andres et al.): 20-30%
